Data from ChEMBL document CHEMBL1133556, “Carbonic anhydrase inhibitors: water-soluble 4-sulfamoylphenylthioureas as topical intraocular pressure-lowering agents with long-lasting effects” (J Med Chem, 2000).
Values after ≈ are worked out from the molar mass of the structure shown.

How the values were obtained:
Oryctolagus cuniculus [1] = organism: Oryctolagus cuniculus
Oryctolagus cuniculus [2] = experiment: Tested in vivo for lowering IOP (Intraocular Pressure)in Normotensive Rabbits at pH 7.0. after treatment with 50 uL, activity at 90 minutes; type: functional
Carbonic anhydrase 1 = Carbonic anhydrase 1 (Homo sapiens, UniProt P00915)
Description: Inhibitory activity against human recombinant carbonic anhydrase I

Carbonic anhydrase 2 = Carbonic anhydrase 2 (Homo sapiens, UniProt P00918)
Description: Inhibitory activity against human recombinant carbonic anhydrase II

Oryctolagus cuniculus [3] = experiment: Tested in vivo for lowering IOP (Intraocular Pressure)in Normotensive Rabbits at pH 7.0 after treatment with 50 uL, activity at 60 minutes; type: functional
Carbonic anhydrase 4 = target: T1, Carbonic anhydrase 4 (Bos taurus, UniProt Q95323)
T1 sequence (Q95323 whole entry): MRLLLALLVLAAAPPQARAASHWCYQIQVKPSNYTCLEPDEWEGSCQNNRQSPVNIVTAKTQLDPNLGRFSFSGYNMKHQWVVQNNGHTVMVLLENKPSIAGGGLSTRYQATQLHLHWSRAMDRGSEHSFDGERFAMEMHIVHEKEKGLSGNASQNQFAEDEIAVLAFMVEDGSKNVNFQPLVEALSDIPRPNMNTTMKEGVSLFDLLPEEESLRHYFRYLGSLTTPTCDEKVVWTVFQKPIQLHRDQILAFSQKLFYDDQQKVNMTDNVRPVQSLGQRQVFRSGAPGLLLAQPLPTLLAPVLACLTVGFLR
Description: Inhibitory activity against bovine carbonic anhydrase IV from lung microsomes

Oryctolagus cuniculus [4] = organism: Oryctolagus cuniculus; remark: listed apart in the source
Description: Tested in vivo for lowering IOP (Intraocular Pressure)in Normotensive Rabbits at pH 7.0 after treatment with 50 uL, activity at 90 minutes

Oryctolagus cuniculus [5] = experiment: Tested in vivo for lowering IOP (Intraocular Pressure)in Normotensive Rabbits at pH 7.0 after treatment with 50 uL, activity at 30 minutes; type: functional
Oryctolagus cuniculus [6] = organism: Oryctolagus cuniculus; remark: listed apart in the source
Oryctolagus cuniculus [7] = experiment: Tested in vivo for lowering IOP (Intraocular Pressure)in Glaucomatous Rabbits at pH 7.5 after treatment with 50 uL, activity at 30 minutes; type: functional
Oryctolagus cuniculus [8] = organism: Oryctolagus cuniculus; remark: listed apart in the source
Description: Tested in vitro for transcorneal accession rates (corneal permeability) against cornea with no epithelium

Oryctolagus cuniculus [9] = organism: Oryctolagus cuniculus; remark: listed apart in the source
Description: Tested in vitro for transcorneal accession rates (corneal permeability) against intact cornea

physchem = settings: buffer, pH 7.4
Description: Solubility (in uM) in pH 7.40 at 25 degree C

Oryctolagus cuniculus [10] = experiment: Tested in vivo for lowering IOP (Intraocular Pressure)in Glaucomatous Rabbits at pH 7.5 after treatment with 50 uL, activity at 90 minutes; type: functional
[11] = octanol/water
Description: Partition coefficient (logD) (chloroform/buffer)

Oryctolagus cuniculus [12] = experiment: Tested in vivo for lowering IOP (Intraocular Pressure)in Glaucomatous Rabbits at pH 7.5 after treatment with 50 uL, activity at 60 minutes; type: functional
Oryctolagus cuniculus [13] = organism: Oryctolagus cuniculus; experiment: Tested ex vivo for ocular tissue concentration against ciliary process after 1 hour of treatment with 50 uL; type: functional, organism-based; settings: Eye
Oryctolagus cuniculus [14] = experiment: Tested in vivo for lowering IOP (Intraocular Pressure)in Glaucomatous Rabbits at pH 7.0 after treatment with 50 uL, activity at 90 minutes; type: functional
Oryctolagus cuniculus [15] = experiment: Tested in vivo for lowering IOP (Intraocular Pressure)in Glaucomatous Rabbits at pH 7.0 after treatment with 50 uL, activity at 60 minutes; type: functional
Oryctolagus cuniculus [16] = organism: Oryctolagus cuniculus; experiment: Tested ex vivo for ocular tissue concentration against cornea after 2 hour of treatment with 50 uL; type: functional, organism-based
Oryctolagus cuniculus [17] = experiment: Tested in vivo for lowering IOP (Intraocular Pressure)in Glaucomatous Rabbits at pH 7.0 after treatment with 50 uL, activity at 30 minutes; type: functional
Oryctolagus cuniculus [18] = organism: Oryctolagus cuniculus; experiment: Tested ex vivo for ocular tissue concentration against aqueous humor after 1 hour of treatment with 50 uL; type: functional, organism-based; settings: Eye
Oryctolagus cuniculus [19] = organism: Oryctolagus cuniculus; experiment: Tested ex vivo for ocular tissue concentration against ciliary process after 2 hour of treatment with 50 uL; type: functional, organism-based; settings: Eye
Oryctolagus cuniculus [20] = organism: Oryctolagus cuniculus; experiment: Tested ex vivo for ocular tissue concentration against aqueous humor after 2 hour of treatment with 50 uL; type: functional, organism-based; settings: Eye
Oryctolagus cuniculus [21] = organism: Oryctolagus cuniculus; experiment: Tested ex vivo for ocular tissue concentration against cornea after 1 hour of treatment with 50 uL; type: functional, organism-based

Chain of Carbonic anhydrase 1 (P00915 whole entry): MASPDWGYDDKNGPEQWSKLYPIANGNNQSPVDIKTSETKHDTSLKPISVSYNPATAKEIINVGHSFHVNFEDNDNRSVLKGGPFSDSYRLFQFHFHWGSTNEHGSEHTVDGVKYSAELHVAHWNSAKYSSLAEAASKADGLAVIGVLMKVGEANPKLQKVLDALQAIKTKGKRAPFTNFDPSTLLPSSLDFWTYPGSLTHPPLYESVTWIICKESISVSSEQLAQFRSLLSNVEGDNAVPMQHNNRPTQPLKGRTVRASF

SMILES	Delta IOP (Oryctolagus cuniculus [1]) [mmHg]	Ki (Carbonic anhydrase 1) [nM]	Ki (Carbonic anhydrase 2) [nM]	Delta IOP (Oryctolagus cuniculus [3]) [mmHg]	Ki (Carbonic anhydrase 4) [nM]	Delta IOP (Oryctolagus cuniculus [4]) [mmHg]	Delta IOP (Oryctolagus cuniculus [6]) [mmHg]	kin (Oryctolagus cuniculus [8]) [h⁻¹]	kin (Oryctolagus cuniculus [9]) [h⁻¹]	solubility (physchem) [mM]	logD [11]	further results
NCCCCC(/N=C(\S)Nc1ccc(S(N)(=O)=O)cc1)C(=O)O (centres undefined)	0	97	12	0	55							Delta IOP (Oryctolagus cuniculus [2]): 0 mmHg
NS(=O)(=O)c1ccc(N/C(S)=N\CCCC(=O)O)cc1		45	11		33	2.9	3.1					Delta IOP (Oryctolagus cuniculus [5]): 5 mmHg
NS(=O)(=O)c1ccc(N/C(S)=N/C(CO)C(=O)O)cc1 (centres undefined)	8	28	3	9.5	15	9.1		8000	3400	73 (≈ 23.3 mg/mL)	1.459	Delta IOP (Oryctolagus cuniculus [7]): 10.4 mmHg; Delta IOP (Oryctolagus cuniculus [10]): 17.5 mmHg; Delta IOP (Oryctolagus cuniculus [12]): 15 mmHg
NC(=O)CC(/N=C(\S)Nc1ccc(S(N)(=O)=O)cc1)C(=O)O (centres undefined)	7	27	6		11	6	10.1	7800	3100	51 (≈ 17.7 mg/mL)	1.759	Concentration (Oryctolagus cuniculus [13]): 47 µM; Delta IOP (Oryctolagus cuniculus [14]): 15.5 mmHg; Delta IOP (Oryctolagus cuniculus [15]): 13 mmHg; Concentration (Oryctolagus cuniculus [16]): 54 µM; Delta IOP (Oryctolagus cuniculus [17]): 10 mmHg; Concentration (Oryctolagus cuniculus [18]): 285 µM; Concentration (Oryctolagus cuniculus [19]): 12 µM; Concentration (Oryctolagus cuniculus [20]): 43 µM; Concentration (Oryctolagus cuniculus [21]): 141 µM
